Measured values: ChEMBL document CHEMBL1201862, “PubChem BioAssay data set” (2004)
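48-hour exposure; five concentrations; linearly interpolated endpoints. At the GI50, growth is halved.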 Active and inactive are the calls of the source. Rule as the data show it: active = GI50 up to about 1.1 µM and inactive = higher.

Legend:
Assay in all cases: DTP human tumour cell line panel, 48 h
NCI-H460 = test system: NCI-H460
M14 = test system: M14
SR = test system: SR
SNB-75 = test system: SNB-75
A498 = test system: A498
OVCAR-4 = test system: OVCAR-4
HOP-62 = test system: HOP-62
RPMI-8226 = test system: RPMI-8226
SF-268 = test system: SF-268
HT-29 = test system: HT-29
Malme-3M = test system: Malme-3M
LOX IMVI = test system: LOX IMVI
SK-MEL-28 = test system: SK-MEL-28
U-251 = test system: U-251
K562 = test system: K562
HOP-92 = test system: HOP-92
OVCAR-8 = test system: OVCAR-8
SW-620 = test system: SW-620
COLO 205 = test system: COLO 205
EKVX = test system: EKVX

Compound	GI50 (NCI-H460)	GI50 (M14)	GI50 (SR)	GI50 (SNB-75)	GI50 (A498)	GI50 (OVCAR-4)	GI50 (HOP-62)	GI50 (RPMI-8226)	GI50 (SF-268)	GI50 (HT-29)	GI50 (Malme-3M)	GI50 (LOX IMVI)	GI50 (SK-MEL-28)	GI50 (U-251)	GI50 (K562)	GI50 (HOP-92)	GI50 (OVCAR-8)	GI50 (SW-620)	GI50 (COLO 205)	GI50 (EKVX)
COc1ccc(N2C(=O)C3c4[nH]c5c(C)cccc5c4C4CCC(C(C)C)CC4C3C2=O)cc1 (stereo not given)	7.94 µM (inactive)	9.53 µM (inactive)	4.68 µM (inactive)	4.06 µM (inactive)	14 µM (inactive)	14 µM (inactive)	10 µM (inactive)	1.88 µM (inactive)	6.01 µM (inactive)	3.37 µM (inactive)	13.4 µM (inactive)	3.59 µM (inactive)	13 µM (inactive)	10 µM (inactive)	2.01 µM (inactive)	12.1 µM (inactive)	12.1 µM (inactive)	11 µM (inactive)	12.4 µM (inactive)	16.7 µM (inactive)
Nc1ccc(C2NC(=O)Cc3c2ccc2ccccc32)cc1 (stereo not given)	71.1 µM (inactive)	89.9 µM (inactive)	> 100 µM (inactive)	> 100 µM (inactive)	> 100 µM (inactive)	40.3 µM (inactive)	56.2 µM (inactive)	> 100 µM (inactive)	89.5 µM (inactive)	> 100 µM (inactive)	47 µM (inactive)	> 100 µM (inactive)	> 100 µM (inactive)	> 100 µM (inactive)	> 100 µM (inactive)	> 100 µM (inactive)	56.1 µM (inactive)	> 100 µM (inactive)	76.2 µM (inactive)	84.7 µM (inactive)
COC(=O)NNc1c([N+](=O)[O-])cnn(-c2ccccc2)c1=O	3.96 µM (inactive)	1.8 µM (inactive)	0.497 µM (active)	7.48 µM (inactive)	27.3 µM (inactive)	2.07 µM (inactive)	7.21 µM (inactive)	2.44 µM (inactive)	3.1 µM (inactive)	2.04 µM (inactive)	2.47 µM (inactive)	1.66 µM (inactive)	3.83 µM (inactive)	2.62 µM (inactive)	1.04 µM (active)	2.18 µM (inactive)	1.78 µM (inactive)	1.07 µM (active)	2.11 µM (inactive)	3.82 µM (inactive)
O=C1/C(=c2\c3ccccc3n3c(=O)c4ccccc4nc23)Nc2ccccc21 [CANDIDINE]	43.5 µM (inactive)	> 38.7 µM (inactive)	> 89.5 µM (inactive)	25.6 µM (inactive)	> 100 µM (inactive)	> 100 µM (inactive)	> 70.5 µM (inactive)	> 100 µM (inactive)	85.3 µM (inactive)	26.6 µM (inactive)	33 µM (inactive)	> 72.8 µM (inactive)	> 100 µM (inactive)	> 93.8 µM (inactive)	> 84.5 µM (inactive)	> 75.7 µM (inactive)	> 91.8 µM (inactive)	> 100 µM (inactive)	58.5 µM (inactive)	> 88.9 µM (inactive)
C/C1=C\C=C(\C(C)C)CC/C(C(=O)O)=C\CC/C(C)=C/CC1 [NEOCROTOCEMBRANEIC ACID]	17.7 µM (inactive)	29 µM (inactive)	19.5 µM (inactive)	33.7 µM (inactive)	17.6 µM (inactive)	33.4 µM (inactive)	22.8 µM (inactive)	19.3 µM (inactive)	32.9 µM (inactive)	32 µM (inactive)	23.2 µM (inactive)	20.5 µM (inactive)	24.6 µM (inactive)	16.9 µM (inactive)	26.1 µM (inactive)	19.4 µM (inactive)	31.2 µM (inactive)	35.8 µM (inactive)	23.4 µM (inactive)	27.1 µM (inactive)
